In the supplement of paper PMC11208160:

experiment: recombinant UMI read abundance after kanamycin selection (control-corrected) (log10(CPM+1)); higher = more efficient recombination; extreme values may be limits of the assay; sequences stand for … in AGTGCAGAGAAAATCGGCCAGTTTTCTCTGCCTGCAGTCCGCATGCCGTGGGACCCCTTGGGTTCTAACCTGTTGCCTAGATTTATGCAGCGGACTGCCTTTCTCCCAAAGTGATAAACCGG…AGGTTGGTTTCACT; site = the 11-nt donor
Procedure, shortened: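 In a pooled Escherichia coli screen for the IS621 bridge recombinase, donor and donor-binding-loop pairs were each placed with a 12-nt UMI on a plasmid bearing a promoterless kanamycin gene. This library was co-electroporated with a target plasmid encoding a fixed target and T7-inducible recombinase, and cells were plated either on IPTG (0.07 mM) plus kanamycin or without selection, in two replicates each. Recombinant UMIs were PCR-amplified across the donor–target junction and sequenced, and counts were converted to CPM, averaged over replicates, scaled by control-derived factors and reported as log10(CPM+1).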
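Note: IS621 bridge recombinase in Escherichia coli cells against a fixed T5 target plasmid.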

Sequence	recombinant UMI read abundance (log10)
CTAGCATCATGGACCGGTTTTCCCGGTAATCCGTATTTGAA (site CTAGCATCTTT)	2.86
CTAGCATCATGGACCGGTTTTCCCGGTAATCCGTATTTGAA (site CTAGTATCTGT)	0
CTAGCGTCATGGACCGGTTTTCCCGGTAATCCGTATTTGGA (site CTAGCGTCTTC)	2.45
CTAGGCACATGGACCGGTTTTCCCGGTAATCCGTATTTGCA (site CTAGGCACTTG)	1.67
CTAGGGGCATGGACCGGTTTTCCCGGTAATCCGTATTTGTG (site CTAGGGGCTCA)	1.23
CTAGTAACATGGACCGGTTTTCCCGGTAATCCGTATTTGGA (site CTAATAACTTC)	1.33
CTAGTAACATGGACCGGTTTTCCCGGTAATCCGTATTTGGA (site CTACTAACTTC)	0.119
CTAGTAACATGGACCGGTTTTCCCGGTAATCCGTATTTGGA (site CTAGTAACTTC)	1.98
CTAGTAACATGGACCGGTTTTCCCGGTAATCCGTATTTGGA (site CTATTAACTTC)	0.00934
CTAGTACCATGGACCGGTTTTCCCGGTAATCCGTATTTGAT (site CTAGTACCTAT)	0
CTAGTACCATGGACCGGTTTTCCCGGTAATCCGTATTTGAT (site CTAGTATCTGT)	1.35
CTAGTAGCATGGACCGGTTTTCCCGGTAATCCGTATTTGCC (site CTAGTAGCTGG)	1.64
CTAGTAGCATGGACCGGTTTTCCCGGTAATCCGTATTTGCC (site CTAGTATCTGT)	0
CTAGTATCATGGACCGGTTTTCCCGGTAATCCGTATTTGCC (site CTAGTATCTGA)	2.78
CTAGTATCATGGACCGGTTTTCCCGGTAATCCGTATTTGCC (site CTAGTATCTGC)	2.28
CTAGTATCATGGACCGGTTTTCCCGGTAATCCGTATTTGCC (site CTAGTATCTGG)	3.09
CTAGTATCATGGACCGGTTTTCCCGGTAATCCGTATTTGCC (site CTAGTATCTGT)	2.66
CTAGTGTCATGGACCGGTTTTCCCGGTAATCCGTATTTGAT (site CTAGTATCTGT)	1.55
CTAGTGTCATGGACCGGTTTTCCCGGTAATCCGTATTTGAT (site CTAGTGTCTAT)	2.25
CTAGTGTCATGGACCGGTTTTCCCGGTAATCCGTATTTGGC (site CTAGTATCTGT)	1.29
CTAGTGTCATGGACCGGTTTTCCCGGTAATCCGTATTTGGC (site CTAGTGTCTGC)	2.17
CTAGTGTCATGGACCGGTTTTCCCGGTAATCCGTATTTGGT (site CTAGTGTCTAC)	2.6
CTATACACATGGACCGGTTTTCCCGGTAATCCGTATTTGCT (site CTATACACTAG)	2.38
CTATACACATGGACCGGTTTTCCCGGTAATCCGTATTTGCT (site CTCTACACTAG)	1.53
CTATACACATGGACCGGTTTTCCCGGTAATCCGTATTTGCT (site CTGTACACTAG)	0.705

Sequence	recombinant UMI read abundance (log10)
CTATACACATGGACCGGTTTTCCCGGTAATCCGTATTTGCT (site CTTTACACTAG)	0.92
CTATACTCATGGACCGGTTTTCCCGGTAATCCGTATTTGTT (site CTATACTCTAA)	3.11
CTATATACATGGACCGGTTTTCCCGGTAATCCGTATTTGAC (site CTATATACTGT)	3.02
CTATCAACATGGACCGGTTTTCCCGGTAATCCGTATTTGCT (site CGATCATCTAG)	0.00622
CTATCAACATGGACCGGTTTTCCCGGTAATCCGTATTTGCT (site CTATCAACTAG)	1.92
CTATCATCATGGACCGGTTTTCCCGGTAATCCGTATTTGGT (site CGATCATCTAG)	0
CTATCATCATGGACCGGTTTTCCCGGTAATCCGTATTTGGT (site CTATCATCTAC)	0.706
CTATCCTCATGGACCGGTTTTCCCGGTAATCCGTATTTGAA (site CTATCCTCTTT)	2.6
CTATTCCCATGGACCGGTTTTCCCGGTAATCCGTATTTGCT (site CAATTCCCTAG)	0.77
CTATTCCCATGGACCGGTTTTCCCGGTAATCCGTATTTGCT (site CCATTCCCTAG)	1.43
CTATTCCCATGGACCGGTTTTCCCGGTAATCCGTATTTGCT (site CGATTCCCTAG)	0.475
CTATTCCCATGGACCGGTTTTCCCGGTAATCCGTATTTGCT (site CTATTCCCTAG)	0.845
CTCAACACATGGACCGGTTTTCCCGGTAATCCGTATTTGCT (site CTCAACACTAG)	2
CTCAACACATGGACCGGTTTTCCCGGTAATCCGTATTTGCT (site CTCCACACTAG)	0.438
CTCAACACATGGACCGGTTTTCCCGGTAATCCGTATTTGCT (site CTCGACACTAG)	0.368
CTCAACACATGGACCGGTTTTCCCGGTAATCCGTATTTGCT (site CTCTACACTAG)	1.23
CTCAAGCCATGGACCGGTTTTCCCGGTAATCCGTATTTGAG (site CTCAAGCCTCT)	0
CTCAGAACATGGACCGGTTTTCCCGGTAATCCGTATTTGCC (site CTCAGAACTGG)	1.47
CTCAGACCATGGACCGGTTTTCCCGGTAATCCGTATTTGCG (site CTCAGACCTCG)	0
CTCAGGACATGGACCGGTTTTCCCGGTAATCCGTATTTGAG (site CTCAGGACTCT)	0
CTCCACACATGGACCGGTTTTCCCGGTAATCCGTATTTGCT (site CTCAACACTAG)	0
CTCCACACATGGACCGGTTTTCCCGGTAATCCGTATTTGCT (site CTCCACACTAG)	2.08
CTCCACACATGGACCGGTTTTCCCGGTAATCCGTATTTGCT (site CTCGACACTAG)	0
CTCCACACATGGACCGGTTTTCCCGGTAATCCGTATTTGCT (site CTCTACACTAG)	1.54
CTCCACGCATGGACCGGTTTTCCCGGTAATCCGTATTTGTT (site CTCCACGCTAA)	1.57

Sequence	recombinant UMI read abundance (log10)
CTCCCGACATGGACCGGTTTTCCCGGTAATCCGTATTTGGA (site CTCCCGACTTC)	0.231
CTCCCTACATGGACCGGTTTTCCCGGTAATCCGTATTTGTG (site CTCCCTACTCA)	0.525
CTCCCTACATGGACCGGTTTTCCCGGTAATCCGTATTTGTG (site CTCCCTACTCC)	0.617
CTCCCTACATGGACCGGTTTTCCCGGTAATCCGTATTTGTG (site CTCCCTACTCG)	0.143
CTCCCTACATGGACCGGTTTTCCCGGTAATCCGTATTTGTG (site CTCCCTACTCT)	0.00616
CTCCGTACATGGACCGGTTTTCCCGGTAATCCGTATTTGCT (site CACCGTACTAG)	1.41
CTCCGTACATGGACCGGTTTTCCCGGTAATCCGTATTTGCT (site CCCCGTACTAG)	1.28
CTCCGTACATGGACCGGTTTTCCCGGTAATCCGTATTTGCT (site CGCCGTACTAG)	0.00286
CTCCGTACATGGACCGGTTTTCCCGGTAATCCGTATTTGCT (site CTCCGTACTAG)	1.45
CTCCTGTCATGGACCGGTTTTCCCGGTAATCCGTATTTGAC (site CTCCTGTCTGT)	0
CTCGCGGCATGGACCGGTTTTCCCGGTAATCCGTATTTGCC (site CTCGCGGCTGG)	0
CTCGCTACATGGACCGGTTTTCCCGGTAATCCGTATTTGCA (site CTCGCTACTTG)	2.41
CTCGCTCCATGGACCGGTTTTCCCGGTAATCCGTATTTGAG (site CTCGCTCCTCT)	0.0649
CTCGTAACATGGACCGGTTTTCCCGGTAATCCGTATTTGAC (site CTAGTATCTGT)	0.0113
CTCGTAACATGGACCGGTTTTCCCGGTAATCCGTATTTGAC (site CTCGTAACTGT)	2.56
CTCGTATCATGGACCGGTTTTCCCGGTAATCCGTATTTGAC (site CTAGTATCTGT)	0.00452
CTCGTATCATGGACCGGTTTTCCCGGTAATCCGTATTTGAC (site CTCGTATCTGT)	2.6
CTCGTATCATGGACCGGTTTTCCCGGTAATCCGTATTTGAC (site CTGGTATCTGT)	0
CTCGTATCATGGACCGGTTTTCCCGGTAATCCGTATTTGAC (site CTTGTATCTGT)	0
CTCTAAACATGGACCGGTTTTCCCGGTAATCCGTATTTGCT (site CTCTAAACTAG)	2.06
CTCTAAACATGGACCGGTTTTCCCGGTAATCCGTATTTGCT (site CTCTACACTAG)	0.676
CTCTAAACATGGACCGGTTTTCCCGGTAATCCGTATTTGCT (site CTCTAGACTAG)	0.36
CTCTAAACATGGACCGGTTTTCCCGGTAATCCGTATTTGCT (site CTCTATACTAG)	0
CTCTATACATGGACCGGTTTTCCCGGTAATCCGTATTTGCT (site CTCTAAACTAG)	0
CTCTATACATGGACCGGTTTTCCCGGTAATCCGTATTTGCT (site CTCTACACTAG)	0.592
